Here are results for four molecules from PubChem BioAssay (NCI).

SMILES strings stand for the structures.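 Protocol summary: plate cells (96-well), add compound at 5 concentrations, incubate 48 h, interpolate endpoints linearly. The concentration for full growth arrest is given as TGI.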

One experiment relates to MOLT-4 leukemia. The experiment can be described thus: NCI tumour cell line growth inhibition, 48 h.
With `COC1CC(Br)(C#N)C1` (stereo not drawn), the TGI was > 100 µM.

For the molecule `O=C(Nc1c(O)[nH]c(=S)[nH]c1=O)c1ccco1`, the TGI is > 100 µM.

Another experiment concerns NCI-H226 lung. The experiment is described as follows: NCI tumour cell line growth inhibition, 48 h.
In the case of `CC1(C)S[C@H](c2ccccc2C(=O)O)N[C@@H]1CC(=O)O`, the TGI was > 100 µM.

Consider `CCc1cccc(C)c1NC(=O)CCc1n[nH]c(=S)o1`, for which the TGI is > 100 µM.

Take `O=C(Nc1c(O)[nH]c(=S)[nH]c1=O)c1ccco1`: the TGI is > 100 µM.

For another experiment, the system named is NCI-H23 lung. The experiment is described as follows: NCI tumour cell line growth inhibition, 48 h.
As for `CC1(C)S[C@H](c2ccccc2C(=O)O)N[C@@H]1CC(=O)O`, the TGI is > 100 µM.

As for `CCc1cccc(C)c1NC(=O)CCc1n[nH]c(=S)o1`, the TGI was > 100 µM.

For the molecule `COC1CC(Br)(C#N)C1` (stereo not drawn), the TGI is > 100 µM.

As to `O=C(Nc1c(O)[nH]c(=S)[nH]c1=O)c1ccco1`, the TGI was > 100 µM.

Another experiment concerns NCI-H460 lung. The experiment can be described thus: NCI tumour cell line growth inhibition, 48 h.
Consider `CC1(C)S[C@H](c2ccccc2C(=O)O)N[C@@H]1CC(=O)O`, for which the TGI is > 100 µM.

As for `CCc1cccc(C)c1NC(=O)CCc1n[nH]c(=S)o1`, the TGI is > 100 µM.

`O=C(Nc1c(O)[nH]c(=S)[nH]c1=O)c1ccco1`: the TGI is > 100 µM.

The test system of another experiment is NCI-H522 lung. The experiment is described as follows: NCI tumour cell line growth inhibition, 48 h.
On to `CC1(C)S[C@H](c2ccccc2C(=O)O)N[C@@H]1CC(=O)O`, for which the TGI is > 100 µM.

On to `CCc1cccc(C)c1NC(=O)CCc1n[nH]c(=S)o1`, for which the TGI was > 100 µM.

With `O=C(Nc1c(O)[nH]c(=S)[nH]c1=O)c1ccco1`, the TGI is > 100 µM.

The subject of another experiment is OVCAR-3 ovarian. The experiment can be described thus: NCI tumour cell line growth inhibition, 48 h.
For the molecule `CCc1cccc(C)c1NC(=O)CCc1n[nH]c(=S)o1`, the TGI is > 100 µM.

On to `COC1CC(Br)(C#N)C1` (stereo not drawn), for which the TGI is > 100 µM.

With `O=C(Nc1c(O)[nH]c(=S)[nH]c1=O)c1ccco1`, the TGI is > 100 µM.

The test system of a further experiment is OVCAR-4 ovarian. The experiment is described as follows: NCI tumour cell line growth inhibition, 48 h.
For `CC1(C)S[C@H](c2ccccc2C(=O)O)N[C@@H]1CC(=O)O`, the TGI is > 100 µM.

Regarding `CCc1cccc(C)c1NC(=O)CCc1n[nH]c(=S)o1`, the TGI is > 100 µM.

Turning to `COC1CC(Br)(C#N)C1` (stereo not drawn), the TGI was > 100 µM.

As for `O=C(Nc1c(O)[nH]c(=S)[nH]c1=O)c1ccco1`, the TGI was > 100 µM.

For another experiment, the system named is OVCAR-5 ovarian. The experiment can be described thus: NCI tumour cell line growth inhibition, 48 h.
As to `CCc1cccc(C)c1NC(=O)CCc1n[nH]c(=S)o1`, the TGI was > 100 µM.

Consider `COC1CC(Br)(C#N)C1` (stereo not drawn), for which the TGI was > 100 µM.

For the molecule `O=C(Nc1c(O)[nH]c(=S)[nH]c1=O)c1ccco1`, the TGI is > 100 µM.

The test system of another experiment is OVCAR-8 ovarian. The experiment can be described thus: NCI tumour cell line growth inhibition, 48 h.
For `CC1(C)S[C@H](c2ccccc2C(=O)O)N[C@@H]1CC(=O)O`, the TGI is > 100 µM.

Regarding `CCc1cccc(C)c1NC(=O)CCc1n[nH]c(=S)o1`, the TGI is > 100 µM.

Regarding `COC1CC(Br)(C#N)C1` (stereo not drawn), the TGI is > 100 µM.

`O=C(Nc1c(O)[nH]c(=S)[nH]c1=O)c1ccco1`: the TGI was > 100 µM.

Another experiment has as its system RPMI-8226 leukemia. The experiment is described as follows: NCI tumour cell line growth inhibition, 48 h.
Consider `CC1(C)S[C@H](c2ccccc2C(=O)O)N[C@@H]1CC(=O)O`, for which the TGI was > 100 µM.

Molecule `CCc1cccc(C)c1NC(=O)CCc1n[nH]c(=S)o1` had a TGI of 58.2 µM.

Regarding `COC1CC(Br)(C#N)C1` (stereo not drawn), the TGI was > 100 µM.

Regarding `O=C(Nc1c(O)[nH]c(=S)[nH]c1=O)c1ccco1`, the TGI was > 100 µM.

For another experiment, the system named is RXF 393 renal. The experiment is described as follows: NCI tumour cell line growth inhibition, 48 h.
Consider `CC1(C)S[C@H](c2ccccc2C(=O)O)N[C@@H]1CC(=O)O`, for which the TGI is > 100 µM.

`COC1CC(Br)(C#N)C1` (stereo not drawn): the TGI is > 100 µM.

For a further experiment, the system named is SF-268 CNS. The experiment can be described thus: NCI tumour cell line growth inhibition, 48 h.
Turning to `CC1(C)S[C@H](c2ccccc2C(=O)O)N[C@@H]1CC(=O)O`, the TGI was > 100 µM.

`CCc1cccc(C)c1NC(=O)CCc1n[nH]c(=S)o1`: the TGI is > 100 µM.

Turning to `COC1CC(Br)(C#N)C1` (stereo not drawn), the TGI was > 100 µM.

In the case of `O=C(Nc1c(O)[nH]c(=S)[nH]c1=O)c1ccco1`, the TGI is > 100 µM.

A further experiment deals with SF-295 CNS. The experiment is described as follows: NCI tumour cell line growth inhibition, 48 h.
In the case of `CC1(C)S[C@H](c2ccccc2C(=O)O)N[C@@H]1CC(=O)O`, the TGI is > 100 µM.

Turning to `CCc1cccc(C)c1NC(=O)CCc1n[nH]c(=S)o1`, the TGI is > 100 µM.

On to `COC1CC(Br)(C#N)C1` (stereo not drawn), for which the TGI was > 100 µM.

Turning to `O=C(Nc1c(O)[nH]c(=S)[nH]c1=O)c1ccco1`, the TGI is > 100 µM.

Another experiment relates to SF-539 CNS. The experiment is described as follows: NCI tumour cell line growth inhibition, 48 h.
In the case of `CC1(C)S[C@H](c2ccccc2C(=O)O)N[C@@H]1CC(=O)O`, the TGI was > 100 µM.

In the case of `CCc1cccc(C)c1NC(=O)CCc1n[nH]c(=S)o1`, the TGI is > 100 µM.

Regarding `COC1CC(Br)(C#N)C1` (stereo not drawn), the TGI is > 100 µM.

With `O=C(Nc1c(O)[nH]c(=S)[nH]c1=O)c1ccco1`, the TGI is > 100 µM.

A further experiment has as its system SK-MEL-2 melanoma. The experiment is described as follows: NCI tumour cell line growth inhibition, 48 h.
Take `COC1CC(Br)(C#N)C1` (stereo not drawn): the TGI is > 100 µM.
